The source made the active and inactive calls. The calls are words filed in the database; no cut-off is given here.
Key:
A549 = experiment: Cytotoxicity against human A549 cells assessed as cell viability incubated for 48 hrs by MTT assay; format: functional, cell-based; settings: A549, 48 h
NCI-H460 = experiment: Cytotoxicity against human NCI-H460 cells assessed as cell viability incubated for 48 hrs by MTT assay; format: functional, cell-based; settings: for IC50: NCI-H460, 48 h

Row | Structure (SMILES) | IC50 (A549) [µM] | IC50 (NCI-H460) [µM] | Activity (NCI-H460)
1 | C/C1=C\[C@@H](OC(=O)C2CC2)[C@H]2[C@H](CC3=C[C@H](C1)OC3=O)OC(=O)[C@@H]2CSc1nc2ccccc2s1 | 17.2 | > 25 | 
2 | C/C1=C\[C@@H](OC(=O)C2CC2)[C@H]2[C@H](CC3=C[C@H](C1)OC3=O)OC(=O)[C@@H]2CSCCOCCOCCSC[C@H]1C(=O)O[C@H]2CC3=C[C@H](C/C(C)=C/[C@@H](OC(=O)C4CC4)[C@@H]21)OC3=O | 13.2 | > 25 | 
3 | C/C1=C\[C@@H](O)[C@H]2[C@H](CC3=C[C@H](C1)OC3=O)OC(=O)[C@@H]2CSc1cccc(F)c1 | > 25 | > 25 | 
4 | C/C1=C\[C@@H](OC(=O)/C=C/c2ccccc2)[C@H]2[C@H](CC3=C[C@H](C1)OC3=O)OC(=O)[C@@H]2CSCCCCCCCCCCSC[C@H]1C(=O)O[C@H]2CC3=C[C@H](C/C(C)=C/[C@@H](OC(=O)/C=C/c4ccccc4)[C@@H]21)OC3=O | > 25 | > 25 | 
5 | C/C1=C\[C@@H](OC(=O)/C=C/c2ccccc2)[C@H]2[C@H](CC3=C[C@H](C1)OC3=O)OC(=O)[C@@H]2CSCc1ccc(Cl)cc1 | > 25 | > 25 | 
6 | C/C1=C\[C@@H](OC(=O)c2ccccc2)[C@H]2[C@H](CC3=C[C@H](C1)OC3=O)OC(=O)[C@@H]2CSCc1ccc(Cl)cc1 | > 25 | > 25 | 
7 | C/C1=C\[C@@H](OC(=O)C2CC2)[C@H]2[C@H](CC3=C[C@H](C1)OC3=O)OC(=O)[C@@H]2CSCC(C)C | > 25 | > 25 | 
8 | C/C1=C\[C@@H](OC(=O)NCc2cccs2)[C@H]2[C@H](CC3=C[C@H](C1)OC3=O)OC(=O)[C@@H]2CSc1ccc(F)cc1 | 5.51 |  | 
9 | C/C1=C\[C@@H](O)[C@H]2[C@H](CC3=C[C@H](C1)OC3=O)OC(=O)[C@@H]2CSCCOCCOCCSC[C@H]1C(=O)O[C@H]2CC3=C[C@H](C/C(C)=C/[C@@H](O)[C@@H]21)OC3=O | > 25 | > 25 | 
10 | C/C1=C\[C@@H](OC(=O)OC2CC2)[C@H]2[C@H](CC3=C[C@H](C1)OC3=O)OC(=O)[C@@H]2CSC(=S)N(C)C | 1.29 |  | 
11 | C/C1=C\[C@@H](OC(=O)SCC(C)C)[C@H]2[C@H](CC3=C[C@H](C1)OC3=O)OC(=O)[C@@H]2CSC(=S)N(C)C | 1.37 |  | 
12 | C/C1=C\[C@@H](OC(=O)/C=C/c2ccccc2)[C@H]2[C@H](CC3=C[C@H](C1)OC3=O)OC(=O)[C@@H]2CSC1CCCCC1 | > 25 | > 25 | 
13 | C/C1=C\[C@@H](OC(=O)/C=C/c2ccccc2)[C@H]2[C@H](CC3=C[C@H](C1)OC3=O)OC(=O)[C@@H]2CSCCCCCCSC[C@H]1C(=O)O[C@H]2CC3=C[C@H](C/C(C)=C/[C@@H](OC(=O)/C=C/c4ccccc4)[C@@H]21)OC3=O | > 25 | > 25 | 
14 | C/C1=C\[C@@H](OC(=O)NC2CC2)[C@H]2[C@H](CC3=C[C@H](C1)OC3=O)OC(=O)[C@@H]2CSC(=S)N(C)C | 2.08 |  | 
15 | C/C1=C\[C@@H](OC(=O)C2CC2)[C@H]2[C@H](CC3=C[C@H](C1)OC3=O)OC(=O)[C@@H]2CSCCCCCCCCSC[C@H]1C(=O)O[C@H]2CC3=C[C@H](C/C(C)=C/[C@@H](OC(=O)C4CC4)[C@@H]21)OC3=O | > 25 | > 25 | 
16 | C/C1=C\[C@@H](OC(=O)/C=C/c2ccccc2)[C@H]2[C@H](CC3=C[C@H](C1)OC3=O)OC(=O)[C@@H]2CSCCCCCSC[C@H]1C(=O)O[C@H]2CC3=C[C@H](C/C(C)=C/[C@@H](OC(=O)/C=C/c4ccccc4)[C@@H]21)OC3=O | > 25 | > 25 | 
17 | C/C1=C\[C@@H](OC(=O)/C=C/c2ccccc2)[C@H]2[C@H](CC3=C[C@H](C1)OC3=O)OC(=O)[C@@H]2CSCCCCCCCCSC[C@H]1C(=O)O[C@H]2CC3=C[C@H](C/C(C)=C/[C@@H](OC(=O)/C=C/c4ccccc4)[C@@H]21)OC3=O | > 25 | > 25 | 
18 | COc1ccc(SC[C@H]2C(=O)O[C@H]3CC4=C[C@H](C/C(C)=C/[C@@H](OC(=O)/C=C/c5ccccc5)[C@@H]32)OC4=O)cc1 | 14 | > 25 | 
19 | C/C1=C\[C@@H](OC(=O)c2ccccc2)[C@H]2[C@H](CC3=C[C@H](C1)OC3=O)OC(=O)[C@@H]2CSc1cccc(F)c1 | 6.17 | > 25 | 
20 | C/C1=C\[C@@H](O)[C@H]2[C@H](CC3=C[C@H](C1)OC3=O)OC(=O)[C@@H]2CSCC(C)C | > 25 | > 25 | 
21 | C/C1=C\[C@@H](OC(=O)c2ccccc2)[C@H]2[C@H](CC3=C[C@H](C1)OC3=O)OC(=O)[C@@H]2CSc1ccc([N+](=O)[O-])cc1 | 2.59 | > 25 | 
22 | C/C1=C\[C@@H](O)[C@H]2[C@H](CC3=C[C@H](C1)OC3=O)OC(=O)[C@@H]2CSc1ccc(SC[C@H]2C(=O)O[C@H]3CC4=C[C@H](C/C(C)=C/[C@@H](O)[C@@H]32)OC4=O)cc1 | > 25 | > 25 | 
23 | C/C1=C\[C@@H](OC(=O)c2ccccc2)[C@H]2[C@H](CC3=C[C@H](C1)OC3=O)OC(=O)[C@@H]2CSCCCCCCCCSC[C@H]1C(=O)O[C@H]2CC3=C[C@H](C/C(C)=C/[C@@H](OC(=O)c4ccccc4)[C@@H]21)OC3=O | > 25 | > 25 | 

Row | Structure (SMILES) | IC50 (A549) [µM] | IC50 (NCI-H460) [µM] | Activity (NCI-H460)
24 | C/C1=C\[C@@H](OC(=O)NC2CC2)[C@H]2[C@H](CC3=C[C@H](C1)OC3=O)OC(=O)[C@@H]2CSc1ccc(F)cc1 | 15.9 |  | 
25 | C/C1=C\[C@@H](OC(=O)/C=C/c2ccccc2)[C@H]2[C@H](CC3=C[C@H](C1)OC3=O)OC(=O)[C@@H]2CSc1cccc(F)c1 | 15.6 | > 25 | 
26 | C/C1=C\[C@@H](OC(=O)NCc2cccs2)[C@H]2[C@H](CC3=C[C@H](C1)OC3=O)OC(=O)[C@@H]2CSC(=S)N(C)C | 2.8 |  | 
27 | C/C1=C\[C@@H](OC(=O)SC2CCCCC2)[C@H]2[C@H](CC3=C[C@H](C1)OC3=O)OC(=O)[C@@H]2CSc1ccc(F)cc1 | 3.94 |  | 
28 | C/C1=C\[C@@H](OC(=O)c2ccccc2)[C@H]2[C@H](CC3=C[C@H](C1)OC3=O)OC(=O)[C@@H]2CSCCCCCCSC[C@H]1C(=O)O[C@H]2CC3=C[C@H](C/C(C)=C/[C@@H](OC(=O)c4ccccc4)[C@@H]21)OC3=O | > 25 | > 25 | 
29 | C/C1=C\[C@@H](OC(=O)SC2CCCCC2)[C@H]2[C@H](CC3=C[C@H](C1)OC3=O)OC(=O)[C@@H]2CSC(=S)N(C)C | 2.01 |  | 
30 | C/C1=C\[C@@H](OC(=O)/C=C/c2ccccc2)[C@H]2[C@H](CC3=C[C@H](C1)OC3=O)OC(=O)[C@@H]2CSCC(C)C | > 25 | > 25 | 
31 | COc1ccc(SC[C@H]2C(=O)O[C@H]3CC4=C[C@H](C/C(C)=C/[C@@H](OC(=O)C5CC5)[C@@H]32)OC4=O)cc1 | 6.81 | > 25 | 
32 | C[C@@]12C[C@H]3C=C(C[C@@H]4OC(=O)[C@H](CSc5ccc(F)cc5)[C@H]4[C@H](OC(=O)C4CC4)[C@H]1O2)C(=O)O3 |  |  | inactive
33 | C/C1=C\[C@@H](OC(=O)NCc2cccnc2)[C@H]2[C@H](CC3=C[C@H](C1)OC3=O)OC(=O)[C@@H]2CSc1ccc(F)cc1 | 19.3 |  | 
34 | C/C1=C\[C@@H](O)[C@H]2[C@H](CC3=C[C@H](C1)OC3=O)OC(=O)[C@@H]2CSCCCCCCCCCCSC[C@H]1C(=O)O[C@H]2CC3=C[C@H](C/C(C)=C/[C@@H](O)[C@@H]21)OC3=O | > 25 | > 25 | 
35 | C/C1=C\[C@@H](OC(=O)OCc2cccs2)[C@H]2[C@H](CC3=C[C@H](C1)OC3=O)OC(=O)[C@@H]2CSC(=S)N(C)C | 2.56 |  | 
36 | C/C1=C\[C@@H](OC(=O)/C=C/c2ccccc2)[C@H]2[C@H](CC3=C[C@H](C1)OC3=O)OC(=O)[C@@H]2CSc1cccc(Br)c1 | 8.61 | > 25 | 
37 | CCCCCSC[C@H]1C(=O)O[C@H]2CC3=C[C@H](C/C(C)=C/[C@@H](OC(=O)c4ccccc4)[C@@H]21)OC3=O | > 25 | > 25 | 
38 | C/C1=C\[C@@H](OC(=O)/C=C/c2ccccc2)[C@H]2[C@H](CC3=C[C@H](C1)OC3=O)OC(=O)[C@@H]2CSc1ccc(Cl)cc1 | 7.5 | > 25 | 
39 | C/C1=C\[C@@H](O)[C@H]2[C@H](CC3=C[C@H](C1)OC3=O)OC(=O)[C@@H]2CSc1ccc(Br)cc1 | 15.2 | > 25 | 
40 | C/C1=C\[C@@H](OC(=O)N2CCCC2)[C@H]2[C@H](CC3=C[C@H](C1)OC3=O)OC(=O)[C@@H]2CSc1ccc(F)cc1 | 7.51 |  | 
41 | C#CCNC(=O)O[C@@H]1/C=C(\C)C[C@H]2C=C(C[C@@H]3OC(=O)[C@H](CSc4ccc(F)cc4)[C@H]31)C(=O)O2 | 22.1 |  | 
42 | CCCCCSC(=O)O[C@@H]1/C=C(\C)C[C@H]2C=C(C[C@@H]3OC(=O)[C@H](CSc4ccc(F)cc4)[C@H]31)C(=O)O2 | 10.7 |  | 
43 | C/C1=C\[C@@H](OC(=O)OCc2ccc(F)cc2)[C@H]2[C@H](CC3=C[C@H](C1)OC3=O)OC(=O)[C@@H]2CSc1ccc(F)cc1 | 7.29 |  | 
44 | C/C1=C\[C@@H](OC(=O)OCc2cccs2)[C@H]2[C@H](CC3=C[C@H](C1)OC3=O)OC(=O)[C@@H]2CSc1ccc(F)cc1 | 22.6 |  | 
45 | CCCNC(=O)O[C@@H]1/C=C(\C)C[C@H]2C=C(C[C@@H]3OC(=O)[C@H](CSc4ccc(F)cc4)[C@H]31)C(=O)O2 | 10.5 |  | 
46 | C#CCNC(=O)O[C@@H]1/C=C(\C)C[C@H]2C=C(C[C@@H]3OC(=O)[C@H](CSC(=S)N(C)C)[C@H]31)C(=O)O2 | 1.76 |  | 
